Experimental data published in the supplement of paper PMC4858399.
Counter-ions that a name gives are not always drawn.

Experiments:
[1] = tested on: Caenorhabditis elegans N2; experiment: lowest effective concentration for larval growth inhibition (size below effect threshold); higher = less potent; details: exposure time 48 h
Summary of the method: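 Log-transformed well means of per-worm extinction, read as size on a Biosort, came from 50 C. elegans N2 L1 larvae per 96-well grown 48 h at 20°C in K-medium with killed bacteria, 1% DMSO and 0.5 to 200 µM chemical. The lowest effective concentration is the first dose at which the plate-adjusted mean size is below the threshold and stays below it at every higher dose. The threshold is 5.665.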

[2] = tested on: Caenorhabditis elegans N2; experiment: mean nematode size ln(EXT) after 48 h, plate-adjusted (DMSO control set to 6) (ln(EXT), control-adjusted); higher = larger nematodes / less growth inhibition; details: exposure time 48 h
Summary of the method: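 C. elegans N2 larvae, synchronised at L1, grew for 48 h at 20°C in K-medium with killed OP50, 1% DMSO and 0.5–200 µM chemical. Mean size per well was derived from natural-logged Biosort extinction after a growth model removed debris. Adjustment across plates involved subtracting the vehicle control mean and adding 6.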

Row | SMILES | lowest effective concentration [1] | mean nematode size ln(EXT) (ln) ([2]; 0.5 µM) | mean nematode size ln(EXT) (ln) ([2]; 1 µM) | mean nematode size ln(EXT) (ln) ([2]; 5 µM) | mean nematode size ln(EXT) (ln) ([2]; 10 µM) | mean nematode size ln(EXT) (ln) ([2]; 50 µM) | mean nematode size ln(EXT) (ln) ([2]; 100 µM) | mean nematode size ln(EXT) (ln) ([2]; 200 µM)
1 | Oc1ccc(Cl)cc1Cl [2,4-Dichlorophenol] | > 200 µM | 6.05 | 6.13 | 6.07 | 6.04 | 6.03 | 6.03 | 6.92
2 | O=C(O)COc1ccc(Cl)cc1Cl [2,4-Dichlorophenoxyacetic acid (2,4-D)] | > 200 µM | 5.91 | 5.88 | 5.96 | 5.97 | 5.83 | 6.02 | 5.89
3 | Cc1ccc(O)c(C)c1 [2,4-Dimethylphenol] | > 200 µM | 5.82 | 5.97 | 5.96 | 5.87 | 5.85 | 5.84 | 5.72
4 | Cc1ccc(C)c(O)c1 [2,5-Dimethylphenol] | > 200 µM | 5.86 | 5.95 | 5.74 | 5.83 | 5.95 | 5.83 | 5.72
5 | CCc1cccc(CC)c1N [2,6-Diethylaniline] | > 200 µM | 5.78 | 5.83 | 5.81 | 5.8 | 5.82 | 5.84 | 5.68
6 | CC(=O)OC1CC(C)OC(C)O1 (stereo not given) [2,6-Dimethyl-1,3-dioxan-4-ol acetate] | > 200 µM | 5.93 | 5.93 | 5.88 | 5.95 | 6.12 | 5.75 | 5.84
7 | Cc1cccc(C)c1N [2,6-Dimethylaniline] | > 200 µM | 5.87 | 6.07 | 6.05 | 5.98 | 6 | 5.83 | 5.84
8 | Cc1cccc(C)c1O [2,6-Dimethylphenol] | > 200 µM | 5.9 | 5.89 | 5.89 | 5.78 | 5.88 | 5.65 | 5.82
9 | CCCCOCCOCCO [2-(2-Butoxyethoxy)ethanol] | > 200 µM | 5.78 | 6 | 6.21 | 5.86 | 5.95 | 5.74 | 5.96
10 | O=c1c(O)c(-c2ccc(O)c(O)c2)oc2cc(O)cc(O)c12 [2-(3,4-Dihydroxy-phenyl)-3,5,7-trihydroxy-chromen-4-one] | > 200 µM | 5.8 | 5.86 | 5.86 | 5.79 | 4.75 | 5.87 | 5.75
11 | CCC(C)c1ccccc1O (stereo not given) [2-(Butan-2-yl)phenol] | > 200 µM | 5.9 | 5.85 | 5.89 | 5.94 | 5.86 | 5.82 | 5.7
12 | COc1ccccc1N [2-Anisidine] | > 200 µM | 5.76 | 5.78 | 5.84 | 5.82 | 5.83 | 5.81 | 5.78
13 | CCC(C)=NO [2-Butanone oxime] | > 200 µM | 5.68 | 5.89 | 6.05 | 5.8 | 5.82 | 5.68 | 6.2
14 | CCCCOCCO [2-Butoxyethanol] | > 200 µM | 5.93 | 5.98 | 5.92 | 6 | 6.01 | 5.84 | 5.81
15 | Nc1nc(Cl)nc2c1ncn2[C@H]1C[C@H](O)[C@@H](CO)O1 [2-Chloro-2'-deoxyadenosine] | > 200 µM | 5.92 | 5.87 | 5.91 | 5.87 | 5.88 | 5.88 | 5.7
16 | OCCCl [2-Chloroethanol] | > 200 µM | 6 | 5.9 | 5.92 | 5.82 | 5.91 | 5.95 | 5.83
17 | Oc1ccccc1Cl [2-Chlorophenol] | > 200 µM | 5.99 | 5.99 | 6.06 | 6.11 | 6.21 | 6.13 | 5.71
18 | CCOCCO [2-Ethoxyethanol] | > 200 µM | 5.85 | 5.79 | 5.75 | 5.64 | 5.72 | 5.89 | 5.79
19 | CCOCCOC(C)=O [2-Ethoxyethyl acetate] | > 200 µM | 6.11 | 6.11 | 6.07 | 6.08 | 6.07 | 6.04 | 6.57
20 | CCCCC(CC)CO (stereo not given) [2-Ethyl-1-hexanol] | > 200 µM | 5.86 | 5.82 | 5.79 | 5.75 | 5.7 | 5.85 | 5.92
21 | CCCCC(CC)C(=O)O (stereo not given) [2-Ethylhexanoic acid] | > 200 µM | 5.7 | 5.88 | 5.79 | 5.81 | 5.76 | 5.7 | 6.12
22 | Cc1ccc([N+](=O)[O-])cc1N [2-Methyl-5-nitroaniline] | 50 µM | 5.93 | 5.42 | 5.81 | 5.9 | 5.13 | 5.58 | 5.66
23 | Cc1ccccc1N [2-Methylbenzenamine] | > 200 µM | 5.79 | 5.87 | 5.76 | 5.89 | 5.91 | 5.73 | 5.89
24 | Cc1ccccc1O [2-Methylphenol] | > 200 µM | 5.98 | 5.9 | 5.94 | 5.82 | 5.92 | 5.94 | 5.81
25 | Cc1ccccc1[N+](=O)[O-] [2-Nitrotoluene] | > 200 µM | 5.85 | 5.89 | 6.04 | 5.77 | 5.91 | 5.76 | 5.7
26 | CCOCCOCCOCCO [2-[2-(2-Ethoxyethoxy)ethoxy]ethanol] | > 200 µM | 5.96 | 5.89 | 5.95 | 5.94 | 5.91 | 5.9 | 5.83
27 | COc1ccc([N+](=O)[O-])cc1N [2-methoxy-5-nitroaniline] | > 200 µM | 5.71 | 5.76 | 5.68 | 5.77 | 5.83 | 5.75 | 5.82
28 | COc1cc(-c2ccc(N)c(OC)c2)ccc1N [3,3'-Dimethoxybenzidine dihydrochloride] | > 200 µM | 5.89 | 5.91 | 5.9 | 5.65 | 5.72 | 5.41 | 6.4

Row | SMILES | lowest effective concentration [1] | mean nematode size ln(EXT) (ln) ([2]; 0.5 µM) | mean nematode size ln(EXT) (ln) ([2]; 1 µM) | mean nematode size ln(EXT) (ln) ([2]; 5 µM) | mean nematode size ln(EXT) (ln) ([2]; 10 µM) | mean nematode size ln(EXT) (ln) ([2]; 50 µM) | mean nematode size ln(EXT) (ln) ([2]; 100 µM) | mean nematode size ln(EXT) (ln) ([2]; 200 µM)
29 | COc1cc(-c2ccc(N)c(OC)c2)ccc1N [3,3'-Dimethoxybenzidine)] | > 200 µM | 6 | 6.08 | 6.05 | 6.07 | 6.06 | 6.03 | 5.74
30 | Cc1ccc(N)c(N)c1 [3,4-Diaminotoluene] | > 200 µM | 5.97 | 5.93 | 5.94 | 5.91 | 5.88 | 5.71 | 5.75
31 | Cc1ccc(O)cc1C [3,4-Dimethylphenol] | > 200 µM | 5.87 | 5.86 | 5.92 | 5.91 | 5.95 | 5.86 | 5.86
32 | CC(C)=CCC/C(C)=C/C=O [3,7-Dimethyl-2,6-octadienal] | > 200 µM | 5.72 | 5.74 | 5.77 | 5.84 | 5.78 | 5.88 | 5.73
33 | Cc1cccc(N)c1 [3-Methylaniline] | > 200 µM | 5.82 | 5.86 | 5.86 | 5.88 | 5.91 | 5.99 | 5.79
34 | Cc1cccc([N+](=O)[O-])c1 [3-Nitrotoluene] | > 200 µM | 5.78 | 5.89 | 5.82 | 5.77 | 5.93 | 5.88 | 5.85
35 | O=C(O)c1cccc(Oc2ccccc2)c1 [3-Phenoxybenzoic acid] | > 200 µM | 5.87 | 5.85 | 5.89 | 5.87 | 5.83 | 5.83 | 5.91
36 | CCO[Si](CCCNC(N)=O)(OCC)OCC [3-Ureidopropyltriethoxysilane] | > 200 µM | 5.84 | 5.83 | 5.84 | 5.8 | 5.74 | 5.63 | 5.84
37 | Cc1cc(Cc2ccc(N)c(C)c2)ccc1N [4,4'-Methylene bis(2-methylaniline)] | > 200 µM | 5.83 | 5.82 | 5.8 | 5.78 | 5.79 | 5.83 | 5.71
38 | c1cc(-c2ccncc2)ccn1 [4,4'-bipyridine] | > 200 µM | 5.97 | 5.91 | 5.89 | 5.94 | 5.95 | 6.01 | 5.85
39 | O=C1OC(=O)C2C3C=CC(C3)C12 (stereo not given) [4,7-Methanoisobenzofuran-1,3-dione, 3A,4,7,7A-tetrahydro-] | > 200 µM | 5.86 | 5.82 | 5.84 | 5.82 | 5.8 | 5.52 | 5.71
40 | Nc1ccc(C(=O)O)cc1 [4-Aminobenzoic acid] | > 200 µM | 5.84 | 5.87 | 5.81 | 5.49 | 5.83 | 5.85 | 5.72
41 | O=C1CCCO1 [4-Butyrolactone] | > 200 µM | 6.1 | 6.08 | 6 | 6.1 | 6.09 | 6.02 | 5.81
42 | Cc1cc(O)ccc1Cl [4-Chloro-3-methylphenol] | > 200 µM | 5.83 | 5.8 | 5.79 | 5.82 | 5.85 | 5.78 | 5.68
43 | COc1cc(C=O)ccc1O [4-Hydroxy-3-methoxy-benzaldehyde] | > 200 µM | 5.83 | 5.83 | 5.77 | 5.77 | 5.69 | 5.84 | 5.8
44 | CC(C)CC(C)O (stereo not given) [4-Methyl-2-pentanol] | > 200 µM | 6.05 | 5.96 | 6.02 | 5.89 | 5.97 | 5.96 | 5.79
45 | Cc1ccc(N)cc1 [4-Methyl-benzeneamine] | > 200 µM | 5.89 | 5.85 | 5.89 | 5.88 | 5.79 | 5.85 | 5.71
46 | Cc1ccc(O)cc1 [4-Methylphenol] | > 200 µM | 5.84 | 5.98 | 5.92 | 5.87 | 5.96 | 5.8 | 5.83
47 | Nc1ccc([N+](=O)[O-])cc1 [4-Nitroaniline] | > 200 µM | 5.76 | 5.77 | 5.73 | 5.64 | 5.68 | 5.69 | 5.72
48 | O=[N+]([O-])c1ccc(O)cc1 [4-Nitrophenol] | > 200 µM | 5.92 | 5.82 | 5.87 | 5.69 | 5.89 | 5.8 | 5.8
49 | Cc1ccc([N+](=O)[O-])cc1 [4-Nitrotoluene] | > 200 µM | 5.99 | 5.92 | 5.98 | 5.85 | 5.94 | 5.95 | 5.77
50 | CC(C)(C)c1ccc(O)cc1 [4-tert-Butylphenol] | > 200 µM | 5.86 | 5.91 | 5.92 | 5.94 | 5.91 | 5.81 | 5.71
51 | CC1(C)NC(=O)NC1=O [5,5-Dimethylhydantoin] | > 200 µM | 5.74 | 5.99 | 6.06 | 5.91 | 5.97 | 5.93 | 5.79
52 | O=C1NC(=O)C(c2ccccc2)(c2ccccc2)N1 [5,5-Diphenylhydantoin] | > 200 µM | 5.94 | 5.99 | 5.92 | 5.94 | 5.91 | 5.88 | 5.78
53 | Cc1ccc(N)cc1O [5-Amino-o-cresol] | > 200 µM | 5.44 | 5.57 | 5.55 | 5.6 | 5.74 | 5.75 | 5.8
54 | CCC12COCN1COC2 [5-Ethyl-1-aza-3,7-dioxabicyclo[3.3.0]octane] | > 200 µM | 5.73 | 6.05 | 6.06 | 5.92 | 5.96 | 5.94 | 5.78
55 | Cc1c(-c2cccnc2)c2ccccc2n1CCCCC(=O)O [5-[2-methyl-3-(pyridin-3-yl)-1H-indol-1-yl]pentanoic acid] | > 200 µM | 5.93 | 5.89 | 5.78 | 5.84 | 5.83 | 5.87 | 5.7
